Several values for one entry are separate records, joined by “and”; a condition that tells them apart may be missing. Identical values can stand only once. Entries after “also recorded” stand apart in the source; their conditions may differ. Like-named read-outs stand apart in the source and are kept apart here.
How the values were obtained:
[1] = system: Control fibroblasts and lymphocytes; conditions: 2 mM, 3 and 5 days, light microscopy
Protocol: Mood stabilizing drugs like lithium are commonly used as treatment for BD (Friedman et al., Biol. Psychiatr. 56:340-348 (2004) and Goodwin et al., JAMA 290:1467-1473 (2003)), and all but one of our subjects with BD was receiving lithium. […] Control fibroblasts and lymphocytes were treated with 2 mM lithium carbonate (LiCO3; approximately twice the average serum level of lithium in patients) for 3 and 5 days. Cells treated with a water vehicle only served as controls.
The fluorescent marker, MitoTracker-M7510 (Invitrogen, Carlsbad Calif.), was used to visualize mitochondria according to manufacturers instructions. Briefly, fibroblasts were plated at 2.5×10^4 and grown on coverslips, subsequently washed one time with pre-warmed growth media and incubated with M7510 at a final concentration of 250 nM in culture media at 37° C., 5% CO2 for 30 min. Cells were then washed once with culture media and fixed in 4% paraformaldehyde in 100 mM phosphate buffer pH 7.4 for 15 min. Following fixation, coverslips were rinsed two times in PBS and mounted in Gel Mount (Biomedia).

control fibroblasts [2] = experiment: Mitochondrial morphology by MitoTracker 7510 after metabolic stress; format: cell-based, human
Protocol: (§1) The fluorescent marker, MitoTracker-[…] Fibroblasts (n=6) and lymphocytes (n=6) from patients with BD and age-matched controls (Fibroblasts, n=6; lymphocytes, n=6)) were exposed to hydrocortisone to induce mitochondrial stress (REFS). Hydrocortisone (Sigma H0888, St. Louis, Mo., USA) was dissolved in 50% ethanol/50% culture medium to yield a 40 mM stock solution. Hydrocortisone was then diluted to appropriate experimental concentrations (10 nM, 1 uM, 100 uM) with above described growth media. Confluent (85-95%) fibroblasts and lymphocytes (1×10^5 ? 1×10^6) were treated for 24 hr with hydrocortisone (sub-acute stress). Cells treated with vehicle (25% ethanol) alone served as controls. Following hydrocortisone treatment, fibroblasts were examined for alterations in mitochondrial morphology, membrane potential, and ATP levels, as described above. All experiments were performed in triplicate. […] ATP levels were assayed as described above.

[3] = system: fibroblasts from BD patients; experiment: as above; format: cell-based, human
Protocol: as §1

BD fibroblasts = experiment: Mitochondrial membrane potential by JC-1 staining after metabolic stress; format: cell-based, human
Source text: (§2) Loss of red JC1 signal relative to monomeric green JC1 indicates collapse of mitochondrial membrane […] (Smiley et al., Proc. Natl. Acad. Sci. 88:3671-3675 (1991) and Cossarizza et al., Biochem. Biophys. Res. Comm. 197:40-45 (1993)).
(§3) The cationic fluorescent dye, JC-1 (5,5′,6,6′-tetrachloro-1,1′,3,3′-tetraethylbenzimidazolylcarbocyanine iodide) (Strategene, La Jolla, Calif. USA), was used to detect changes in mitochondrial membrane potential according to manufacturer's protocol. JC-1 reagent produces a red fluorescence (absorption/emission maxima=585/590 nm) after accumulation and aggregation in healthy, non-apoptotic cells with intact mitochondrial membrane potential and localizes to the cytoplasm as green with JC-1 monomers fluorescence (absorption/emission maxima=510/527 nm) in cells with compromised membrane potential. Briefly, cell lines were plated at a concentration of 2.5×10^4 on coverslips and were incubated with a 1:100 dilution of pre-warmed JC1 in growth media for 15 to 20 min at 37° C., 5% CO2. Cells were then rinsed once with assay buffer and mounted in PBS and analyzed immediately on a fluorescence microscopy. The coverslips were placed on standard microscopy slides and viewed immediately using a Zeiss Axiskop 2 epifluorescence microscope.
(§4) Fibroblasts (n=6) and lymphocytes (n=6) from patients with BD and age-matched controls (Fibroblasts, n=6; lymphocytes, n=6)) were exposed to hydrocortisone to induce mitochondrial stress (REFS). Hydrocortisone (Sigma H0888, St. Louis, Mo., USA) was dissolved in 50% ethanol/50% culture medium to yield a 40 mM stock solution. Hydrocortisone was then diluted to appropriate experimental concentrations (10 nM, 1 uM, 100 uM) with above described growth media. Confluent (85-95%) fibroblasts and lymphocytes (1×10^5 ? 1×10^6) were treated for 24 hr with hydrocortisone (sub-acute stress). Cells treated with vehicle (25% ethanol) alone served as controls. Following hydrocortisone treatment, fibroblasts were examined for alterations in mitochondrial morphology, membrane potential, and ATP levels, as described above. All experiments were performed in triplicate.
(§5) We also studied an equal number of fibroblast lines from BD and age-matched controls which were exposed to 100 μM hydrogen peroxide for 24 hrs (REFS). ATP levels were assayed as described above. Light microscopic analysis of JC1 to determine changes in mitochondrial membrane potential also were performed as previously described.

control fibroblasts [4] = conditions: H2O2 treated
Protocol: as §2
ATP production was measured in cultured fibroblast lines using the Roche ATP Bioluminescence assay kit CLSII following the manufacturer's protocol (Roche Diagnostics, Mannheim, Germany). Briefly, cells were plated at a concentration of 2.5×10^5 cellsper 60 mm dish were used for each experiment and experiments were conducted two days later. Cell lysis was achieved by boiling in lysis solution ([…], 4 mM EDTA, pH=7.75) followed by incubation for 2 min at 100° C. The cells then were centrifuges spun at 1000×g for 1 min. The supernatants were used for total cell ATP determination. Samples were run in triplicate on a 96-well plate MLX luminometer (Dynex Technologies, Chantilly, Va., USA). Integration was delayed for 1 sec after the addition of luciferase and luminescence was measured for 10 seconds at an emission maximum of […]. Following ATP luminescence measurements, data was normalized to protein concentration as determined by the method of Bradford (Bradford DC assay, BioRad, Temecula, Calif., USA) to yield nanograms of ATP per mg of protein. Assays were performed in triplicate. […]

[5] = system: fibroblasts from BD subjects; experiment: ATP levels by bioluminescence (luciferase) assay after metabolic stress; format: cell-based, human
Protocol: as §2
ATP production was measured in cultured fibroblast lines using the Roche ATP Bioluminescence assay kit CLSII following the manufacturer's protocol (Roche Diagnostics, Mannheim, Germany). Briefly, cells were plated at a concentration of 2.5×10^5 cellsper 60 mm dish were used for each experiment and experiments were conducted two days later. Cell lysis was achieved by boiling in lysis solution ([…], 4 mM EDTA, pH=7.75) followed by incubation for 2 min at 100° C. The cells then were centrifuges spun at 1000×g for 1 min. The supernatants were used for total cell ATP determination. Samples were run in triplicate on a 96-well plate MLX luminometer (Dynex Technologies, Chantilly, Va., USA). Integration was delayed for 1 sec after the addition of luciferase and luminescence was measured for 10 seconds at an emission maximum of […]. Following ATP luminescence measurements, data was normalized to protein concentration as determined by the method of Bradford (Bradford DC assay, BioRad, Temecula, Calif., USA) to yield nanograms of ATP per mg of protein. Assays were performed in triplicate.
as §4, §5

[6] = system: fibroblasts from healthy individuals; experiment: Mitochondrial membrane potential by JC-1 staining after metabolic stress; format: cell-based, human; conditions: 100 μM HC, 24 hr
Source text: as §2, §3, §4, §5

[7] = HC treatment, BD and control fibroblasts, data not shown

## O=C([O-])[O-].[Li+].[Li+] [LiCO3, lithium carbonate]
[1]
  mitochondrial shape and distribution vs vehicle treated cells: no significant differences in mitochondrial shape and distribution
[1]; listed as lithium
  mitochondrial shape and distribution vs vehicle treated cells: could not be replicated

## OO [H2O2, hydrogen peroxide]
Control fibroblasts [2]; 100 μM H2O2, 24 hrs
  mitochondrial morphology (MitoTracker 7510) vs untreated cells: a dispersed mitochondrial network with loss of elongated mitochondrial profiles, increased perinuclear clustering, and increased mitochondrial fragmentation; also recorded: dispersion of the mitochondrial network with loss of elongated mitochondrial profiles
[3]; 100 μM H2O2, 24 hrs
  mitochondrial morphology (MitoTracker 7510) vs untreated cells: almost complete loss of the mitochondrial network, mitochondrial clustering and dramatic mitochondrial fragmentation
BD fibroblasts; 100 μM H2O2, 24 hrs
  JC1 staining (mitochondrial membrane integrity): severe loss of mitochondrial membrane integrity
Control fibroblasts [4]
  ATP compared to untreated control cells: no significant difference
Control fibroblasts [4]; method b169: normalized to nanograms of ATP per mg of protein
  ATP levels, mean: 9.9×10^−4
[5]; H2O2 treated, p<0.001
  decrease in ATP levels compared to untreated BD fibroblasts: 83%
[5]; H2O2 treated, p<0.05
  decrease in ATP levels compared to control cells exposed to H2O2: 93%
[5]; H2O2 treated, method b169: normalized to nanograms of ATP per mg of protein
  ATP levels, mean: 6.2×10^−5 and 6.2×10^−4

## C[C@]12CCC(=O)C=C1CC[C@@H]1[C@@H]2[C@@H](O)C[C@@]2(C)[C@H]1CC[C@]2(O)C(=O)CO [hydrocortisone]
Control fibroblasts [2]; 100 μM HC, 24 hr
  mitochondrial morphology (MitoTracker 7510) vs untreated cells: some loss in the reticular pattern of mitochondria; also recorded: a slight loss in the reticular pattern of the mitochondrial network and greater frequency of perinuclear clustering
[3]; 100 μM HC, 24 hr
  mitochondrial morphology (MitoTracker 7510): perinuclear clustering like that seen in untreated cells but a greater degree of mitochondrial fragmentation
BD fibroblasts; 100 μM HC, 24 hr
  JC1 staining (red aggregates vs green monomer): an even greater loss of red JC1 mitochondrial aggregates; also recorded: a loss of red JC1 mitochondrial aggregates in the majority of cells
BD fibroblasts; [7]
  ratiometric changes in JC1 after treatment: did not reach statistical significance
[6]
  JC-1 staining (red aggregates vs green monomer) vs untreated cells: loss of red mitochondrial aggregates in most cells; also recorded: loss of red mitochondrial aggregates
[5]; [7]
  differences in ATP levels after treatment: did not reach statistical significance
